Holding throughout (test): biochemical
The target of experiment [1] is 3CL^pro (Severe acute respiratory syndrome coronavirus 2, UniProt P0DTD1). The experiment is classed as binding, SARS-CoV-2.
The target in experiment [2] is T1, PL^pro (Severe acute respiratory syndrome coronavirus 2, UniProt P0DTD1). Format: binding, SARS-CoV-2.
Experiment [3] has as its target T1, PL^pro. Format: biochemical, SARS-CoV-2.
The mark [4] stands for this setting: read-out: IC50, inhibition of labelling of 3CL^pro by compound of formula (13).

Like-named read-outs stand apart in the source and are kept apart here.

With `O=C(/C=C/c1ccc(O)c(O)c1)O[C@H](Cc1ccc(O)c(O)c1)C(=O)O` [rosmarinic acid], half-maximal inhibition in experiment [1] (IC50) was put at 10 µM. The same measure, in the same setting: the value for `O=C(/C=C/c1ccc(O)c2c1[C@H](C(=O)O)[C@@H](c1ccc(O)c(O)c1)O2)O[C@H](Cc1ccc(O)c(O)c1)C(=O)O` [lithospermic acid] was 32 µM.

On to `COc1cc(/C=C/C(=O)CC(=O)/C=C/c2ccc(O)c(OC)c2)ccc1O` [Compound M03, curcumin], for which, in experiment [2], the “Inhibition of PL^pro labelling (in words)” value is “almost completely inhibited”. In addition, the “Inhibition of enzyme activity of PL^pro (in words)” value in experiment [3] is “inhibited enzyme activity”. Consider `O=C(/C=C/c1ccc(O)c(O)c1/C=C/c1ccc(O)c(O)c1)O[C@H](Cc1ccc(O)c(O)c1)C(=O)O` [salvianolic acid A], for which the IC50 – broadly, the point on the concentration scale where inhibition reaches its midpoint – in experiment [1] (setting [4]) is 4.8 µM. Regarding `O=C(/C=C/c1ccc(O)c2oc(-c3ccc(O)c(O)c3)cc12)O[C@H](Cc1ccc(O)c(O)c1)C(=O)O` [salvianolic acid C], in experiment [1] (setting [4]), the IC50 was 91 µM. In the case of `O=C(/C=C/c1ccc(O)c2c1[C@H](C(=O)O[C@H](Cc1ccc(O)c(O)c1)C(=O)O)[C@@H](c1ccc(O)c(O)c1)O2)O[C@H](Cc1ccc(O)c(O)c1)C(=O)O` [Compound M26, salvianolic acid B], the IC50 in experiment [1] (setting [4]) was determined as 12 µM. For `S=C=NCCc1ccccc1` [Compound X05, Phenethyl isothiocyanate], in experiment [2], the IC50 is 81 µM and the “Inhibition of PL^pro labelling (in words)” value was “incomplete inhibition”. Moreover, in experiment [1], the IC50 stood at 43 µM and the “Inhibition of 3CL^pro labelling (in words)” value was “incomplete inhibition”. In addition, in experiment [3], half-maximal inhibition (IC50) was put at 44 µM and the “Inhibition of enzyme activity of PL^pro (in words)” value is “inhibited enzyme activity”.

The values are drawn from patent publication US20230312471A1 (priority 2020, published 2023).
